Reference: US9968605B2, “2-(2-methylamino-pyrimidin-4-yl)-1h-indole-5-carboxylic acid [(S)-1-carbamoyl-2-(phenyl-pyrimidin-2-yl-amino)-ethyl]-amide for use in the treatment of pain associated to osteoarthritis” (SANOFI, priority 2014, dated 2018)
Entries after “also recorded” stand apart in the source; their conditions may differ.

Experiments:
[1] = system: patients with knee OA; test: Clinical trial: safety and tolerability of a single intra-articular dose in patients with knee OA; assay type: in vivo
Method: (§1) The objective of this study was to assess in patients with knee OA, the efficacy, safety and tolerability of a single intra-articular dose of Compound A.
(§2) This was a two-center, double-blind, randomized, placebo controlled, single dose study. Following a review of the safety data up to Day 28 from Part 1 of this study, the second part of the study assessed the efficacy of a single dose of Compound A, selected from the maximum administered/tolerated dose from Part 1 (60 mg), in relieving symptoms of patients with knee OA.
(§3) Screening was performed within 28 days of dosing. Following the single dose of study medication administered via intra-articular injection on Day 1, each patient remained at the Study Unit for 4 hours after dosing and, provided there was no difficulty with tolerability, patients were discharged and returned periodically for outpatient visits. Each patient was followed up to Day 168 (end-of-study visit); therefore the study period was 28 weeks.
Safety was assessed by adverse event (AE) monitoring, standard clinical laboratory evaluations, physical examination, vital sign and electrocardiogram (ECG) assessments, local tolerability at site of injection and assessments of the knee joint (effusion/worsening of effusion).
The safety analysis was based on the review of descriptive statistics and individual data for AEs, clinical laboratory, vital signs, and ECG parameters. Adverse events were coded according to the Medical Dictionary for Regulatory Activities (version 15.1) and the numbers of subjects with treatment-emergent AEs (TEAEs) were tabulated (counts and percents). For clinical laboratory, vital signs, and ECG data, the analyses of abnormalities were based on the definitions of potentially clinically significant abnormalities (PCSAs; definitions according to version 2.0 dated 14 Sep. 2009). Local tolerance/tolerability at the site of injection was summarized by descriptive statistics.

[2] = system: patients with knee OA; test: Clinical trial: WOMAC index scores after a single intra-articular dose in patients with knee OA; assay type: in vivo, human; settings: Day 56; vs placebo; efficacy population (all patients); negative = positive effect of drug
[3] = system: patients with knee OA; test: as above; assay type: in vivo, human; settings: for Total WOMAC score, absolute change from baseline, Estimate / WOMAC subscore for Pain, absolute change from baseline, Estimate / WOMAC subscore for Physical function, absolute change from baseline, Estimate / WOMAC subscore for Stiffness, absolute change from baseline, Estimate: 60 mg single intra-articular dose; for Total WOMAC score, Compound A 60 mg vs Placebo, Estimate / WOMAC subscore for Pain, Compound A 60 mg vs Placebo, Estimate / WOMAC subscore for Physical function, Compound A 60 mg vs Placebo, Estimate / WOMAC subscore for Stiffness, Compound A 60 mg vs Placebo, Estimate: difference in change from baseline; for WOMAC subscore for Stiffness, Effect size (90% CI): vs placebo
Method: as §1, §2, §3
Compound A was supplied as a lyophilized cake (to be reconstituted in water for injection for intra-articular administration) in vials containing 20, 40 and 80 mg total of active Compound A. The placebo was commercially available 0.9% saline solution for the injection.
The following sub-scales from the WOMAC Index were used to assess the activity of the drug upon pain, stiffness and physical function. Each item will be rated on the basis of the patient's symptoms over the last 48 h, by means of a 5 point Likert Scale: none, mild, moderate, severe, or very severe.
The primary endpoint was the WOMAC Pain sub-scale at Day 56 for evidence of efficacy (change from baseline).
Inclusion criteria are: • Diagnosis of primary knee osteoarthritis, based upon the following: • X-ray or MRI evidence within the last 6 months for joint space narrowing and osteophyte formation—patients will be Kellgren and Lawrence classification II/III, • Total WOMAC score 24-72 and • Fulfilling the American College of Rheumatology Clinical and Radiographic criteria for OA.
Analysis of Efficacy Variables:
Using the primary analysis efficacy population and for WOMAC sub-score for pain on Day 56, treatment mean differences (Compound A minus placebo) in change from baseline and their one-sided 95% upper limit of the confidence interval were computed using linear fixed effects models with fixed terms for treatment group and sex, and with an unstructured R variance/covariance matrix on treatment group for patient within sex blocks, using SAS Proc Mixed®. In case of convergence problems, other variance-covariance structures were explored.
The signs and symptoms of OA were measured with a standard instrument as WOMAC index.
WOMAC index consists of 24 questions in 3 dimensions subscales: • Pain subcale (5 items) • Stiffness subscale (2 items) • Physical function subscale (17 items)
Each item was rated by means of a 5 point Likert scale: none (=0), mild (=1), moderate (=2), severe (=3) and very severe (=4) A total WOMAC score and a WOMAC subscore for each dimension was calculated.
A supportive analysis to the primary analysis was conducted over patients from the efficacy population and with at least one post-dose WOMAC sub-score measurement, using a last observations carried forward (LOCF) approach up to Day 56.
The total WOMAC score and WOMAC sub-score for stiffness and physical function were analysed in the same way as for the primary analysis of WOMAC sub-score for pain.
The treatment mean difference between groups with their one-sided 95% upper limit of the CI was estimated for all other days for all scores. Time profile plots of treatment mean differences with their one-sided 95% upper limit of the CI were provided.
For each WOMAC score (total and sub-scores), the effect size based on the estimated (within the fixed effects model frameworks) mean treatment difference in change from baseline between groups (active versus placebo) were provided at each day with their corresponding 95% CI.

[4] = Day 56, efficacy population (all patients)
[5] = Day 56, patients with effusion at baseline

CNc1nccc(-c2cc3cc(C(=O)N[C@@H](CN(c4ccccc4)c4ncccn4)C(N)=O)ccc3[nH]2)n1 [Compound A, 2-(2-methylamino-pyrimidin-4-yl)-1H-indole-5-carboxylic acid [(S)-1-carbamoyl-2-(phenyl-pyrimidin-2-yl-amino)-ethyl]-amide]
reported TEAEs and their severity, including local reactions at the injection site, vs placebo (0.9% saline) ([1]; 60 mg single intra-articular dose): no difference between Compound A and placebo
tolerability of single doses ([1]; 60 mg single intra-articular dose, patients with knee OA): well tolerated
most frequent TEAE ([1]; after administration of Compound A or placebo, followed by injection site reactions): Arthralgia
Total WOMAC score, Effect size (90% CI) [2]: 0.06
WOMAC subscore for Pain, Effect size (90% CI) [2]: 0.12
WOMAC subscore for Physical function, Effect size (90% CI) [2]: 0.06
Total WOMAC score, absolute change from baseline, Estimate [3, 4]: −10.5566
WOMAC subscore for Pain, absolute change from baseline, Estimate [3, 4]: −1.8229
WOMAC subscore for Physical function, absolute change from baseline, Estimate [3, 4]: −7.7966
WOMAC subscore for Stiffness, absolute change from baseline, Estimate [3, 4]: −0.9406
Total WOMAC score, absolute change from baseline, Estimate [3, 5]: −17.0761
WOMAC subscore for Pain, absolute change from baseline, Estimate [3, 5]: −2.9701
WOMAC subscore for Physical function, absolute change from baseline, Estimate [3, 5]: −12.9658
WOMAC subscore for Stiffness, absolute change from baseline, Estimate [3, 5]: −1.1672
effect sizes for WOMAC subscores ([3]; Day 56, all patients, negative indicates a positive effect of drug against placebo): 0.12 to −0.04
Total WOMAC score, Compound A 60 mg vs Placebo, Estimate [3, 4]: 1.0495
WOMAC subscore for Pain, Compound A 60 mg vs Placebo, Estimate [3, 4]: 0.4554
WOMAC subscore for Physical function, Compound A 60 mg vs Placebo, Estimate [3, 4]: 0.6854
WOMAC subscore for Stiffness, Compound A 60 mg vs Placebo, Estimate [3, 4]: −0.0573
Total WOMAC score, Compound A 60 mg vs Placebo, Estimate [3, 5]: −9.3562
WOMAC subscore for Pain, Compound A 60 mg vs Placebo, Estimate [3, 5]: −1.7213
WOMAC subscore for Physical function, Compound A 60 mg vs Placebo, Estimate [3, 5]: −6.8188
WOMAC subscore for Stiffness, Compound A 60 mg vs Placebo, Estimate [3, 5]: −0.9028
effect on WOMAC Pain subscores, other WOMAC subscores or Total score ([3]; Day 56, efficacy population (all patients), 60 mg): neither a clinically significant nor a statistically significant effect
WOMAC subscore for Stiffness, Effect size (90% CI) ([3]; Day 56, efficacy population (all patients), negative = positive effect of drug): −0.04
WOMAC subscore for Stiffness, Effect size (90% CI) [3, 5]: −0.71
efficacy on pain in patients with knee osteoarthritis and effusion (WOMAC assessment) ([3]; subgroup of patients with effusion at baseline): significant efficacy; also recorded: significant effect
